According to PMC4519859, “Synthesis and Biological Evaluation of Novel Dehydroabietic Acid Derivatives Conjugated with Acyl-Thiourea Peptide Moiety as Antitumor Agents” (International Journal of Molecular Sciences, 2015):

How the values were obtained:
Type in all cases: cell-based, human
[1] = test system: HeLa cells; test: Hoechst 33258 staining; settings: 10 μM, 12 and 24 h
Protocol: Hoechst 33258 which stains the cell nucleus, is a membrane permeable dye with blue fluorescence. Live cells with uniformly light blue nuclei were obviously detected under the fluorescence microscope after treatment with Hoechst 33258 whereas apoptotic cells had bright blue nuclei due to karyopyknosis and chromatin condensation. However, the nuclei of dead cells could not be stained. HeLa cells treated with compound 9n at 10 μM from 12 to 24 h were stained with Hoechst 33258. HeLa cells not treated with compound 9n were used as control for 24 h.
General procedure for Hoechst 33258 staining: cells grown on a sterile cover slip in six-well tissue culture plates were treated with compounds for a certain range of time. The culture medium containing compounds was removed, and the cells were fixed in 4% paraformaldehyde for 10 min. After being washed twice with PBS, the cells were stained with 0.5 mL of Hoechst 33258 (Beyotime, Jiangsu, China) for 5 min and then again washed twice with PBS. The stained nuclei were observed under a Nikon ECLIPSETE2000-S fluorescence microscope using 350 nm excitation and 460 nm emission.

[2] = test system: caspase-3; test: Caspase-3 activation assay; settings: HeLa, versus control, 3 to 24 h
From the text: It is well known that an increase of intracellular ROS can lead to apoptosis. […] Caspases are a family of cysteinyl aspartate specific proteases involved in apoptosis and are dichotomized to groups of initiators (caspases 8, 9 and 10) and executioners (caspases 3, 6 and 7). Caspase-3 is able to directly degrade multiple substrates including structural and regulatory proteins. Some small molecules have been developed to be selective activators of Caspase-3 [30]. Thus, we investigated whether caspase-3 was activated when HeLa cells were exposed to compound 9n.

[3] = test system: HeLa cells; test: Annexin V/PI apoptosis flow cytometry; settings: 12 h, control 1.521%
Protocol: Annexin V/PI staining was performed to distinguish apoptotic and necrotic cell deaths. The apoptosis ratios induced by compound 9n in HeLa cells were quantitatively determined by flow cytometry (Figure 5). […] Apoptosis ratios (including the early and late apoptosis ratios) for compound 9n were obtained after 12 h of treatment at the concentration of 10 and 15 μM. The apoptosis of HeLa cells treated with target compound 9n increased gradually in a concentration manner. […] The results illustrated that target compound 9n suppressed cell proliferation by inducing apoptosis.
General procedure apoptosis ratios: Prepared HeLa cells (1 × 10^6 cells/mL) were washed twice with cold PBS and then re-suspended gently in 500 μL of binding buffer. Thereafter, cells were stained in 5 μL of Annexin V-FITC and shaken well. Finally, the cells were mixed with 5 μL of PI, incubated for 20 min in the dark and subsequently analyzed using FACSCalibur (Becton Dickinson, Franklin Lakes, NJ, USA).

[4] = test system: HeLa cells; test: ROS generation assay (DCF-DA); settings: 10, 15 μM, 12 h
From the text: Mitochondria have also been implicated as a source of ROS during apoptosis. […] We herein studied whether the loss of mitochondrial transmembrane potential resulting in the generation of ROS measured as described in our previous papers , using the fluorescent probe 2,7-dichlorofluorescein diacetate (DCF-DA) determined by fluorescence microscopy. […] Calcium has long been recognized as a significant participant in cell apoptosis. Therefore, we investigated whether compound 9n inducing cell death was involved in the production of Ca^2+. To investigate the effect of compound 9n on calcium release, HeLa cells treated with compound 9n at 10 μM for 24 h were loaded with the Ca^2+ indicator Fluo-3-acetoxymethyl-ester (Fluo-3/AM, 5 µM; Beyotime, Jiangsu, China).

[5] = test system: HeLa cells; test: JC-1 mitochondrial membrane potential staining; settings: 10 μM, 12 and 24 h
From the text: Apoptosis plays an important role in cancer, since its induction in tumor cells is essential for successful treatment. Mitochondria play key roles in apoptosis through the release of pro-apoptotic factors such as cytochrome c and apoptosis-inducing factor [19, 20]. In order to further investigate the apoptosis-inducing effect of target compound 9n, mitochondrial membrane potential changes were designed and detected, using the fluorescent probe JC-1. […] In the control cells, JC-1 could aggregate in mitochondria and present high red fluorescence. However, in cells undergoing apoptosis, where the mitochondrial potential has collapsed, JC-1 exists in the cytosol as a monomer that emits green fluorescence. HeLa cells treated with compound 9n at 10 μM from 12 to 24 h were stained with JC-1 and cells not treated with the compound 9n were used as control for 24 h. […]
General procedure for mitochondrial membrane potential staining: JC-1 probe was employed to measure mitochondrial depolarization in […]. […] Mitochondrial membrane potentials were monitored by determining the relative amounts of dual emissions from mitochondrial JC-1 monomers or aggregates using an Nikon ECLIPSETE2000-S fluorescent microscope. Mitochondrial depolarization is indicated by an increase in the green/red fluorescence intensity ratio.

[6] = test system: HeLa cells; test: TUNEL assay; settings: 10 μM, 12 and 24 h
Protocol: To further define the mechanism of cell death caused by compound 9n, HeLa cells were treated with compound 9n at 10 μM from 12 to 24 h and the DNA fragmentation was measured by the TUNEL assay. TUNEL (terminal-deoxynucleotidyl transferase meditated nick end labeling) is a common method for identifying apoptotic cells in situ by detecting DNA fragmentation. When the genomic DNA is broken, the exposed 3ʹ-OH at the end of deoxynucleotide transfer as the catalytic plus green fluorescent probes fluorescein (FITC) labeled dUTP, which can be detected by fluorescence microscopy or flow cytometry, as indicated by a green color (in the web version). The results are illustrated in Figure 4. […] The results were in good agreement with the previous experiments.
The TUNEL method was performed to label the 3′-end of fragmented DNA of the apoptotic HeLa cells. The cells treated as indicated were fixed with 4% paraformaldehyde phosphate buffer saline, rinsed with PBS, then permeabilized by 0.1% Triton X-100 for FITC end-labeling the fragmented DNA of the apoptotic HeLa cells using TUNEL cell (Beyotime, Jiangsu, China) apoptosis detection kit. The FITC-labeled TUNEL-positive cells were imaged under a fluorescent microscopy by using 488 nm excitation and 530 nm emission.

Compound: CC(C)c1ccc2c(c1)CCC1[C@](C)(C(=O)NC(=S)N[C@H](Cc3ccccc3)C(=O)Nc3ccccn3)CCC[C@]21C (stereo partly drawn) [Compound 9n, (1R,4aS)-7-Isopropyl-1,4a-dimethyl-N-(((R)-1-oxo-3-phenyl-1-(pyridin-2-ylamino)propan-2-yl)carbamothioyl)-1,2,3,4,4a,9,10,10a-octahydrophenanthrene-1-carboxamide]
- apoptosis by Hoechst 33258 staining [1]: typical apoptotic morphology
- caspase-3 activity [2]: significant increase in the activity of caspase-3
- apoptosis ratio (early and late) ([3]; 10 μM): 21.11%
- apoptosis ratio (early and late) ([3]; 15 μM): 42.75%
- ROS level [4]: induced an increase of the ROS level
- mitochondrial membrane potential change (JC-1) [5]: strong green fluorescence
- DNA fragmentation by TUNEL [6]: significantly induced apoptosis
